Experimental data as given in ChEMBL document CHEMBL5385846, “Discovery and development of palmatine analogues as anti-NASH agents by activating farnesoid X receptor (FXR)” (Eur J Med Chem, 2023).
Activity calls are given as the source filed them. No cut-off for these calls is given here.

Experiments:
[1] = system: Mus musculus; test: Hepatoprotective activity in CDAHFD induced C57BL/6N mouse liver injury model assessed as decrease in ALP level at 200 mg/kg,po qd administration for 4 weeks; format: functional, organism-based
[2] = Acute toxicity in Kunming mouse assessed as effect on AST level at 250 to 1000 mg/kg,po administration; format: organism-based; settings: in vivo, dose 250-1000 mg/kg
[3] = system: Rattus norvegicus; test: Hepatoprotective activity in bile duct ligation induced Sprague-Dawley rat liver injury model assessed as decrease in ALP level at 200 mg/kg,po qd administration for 14 days; format: functional, organism-based; settings: time 14.0 day
[4] = system: Rattus norvegicus; test: Antifibrotic activity in bile duct ligation induced Sprague-Dawley rat liver fibrosis model assessed as downregulation of COL1A1 mRNA expression at 200 mg/kg,po qd administration for 14 days by qRT-PCR analysis; format: functional, organism-based; settings: time 14.0 day
[5] = system: Rattus norvegicus; test: Antifibrotic activity in bile duct ligation induced Sprague-Dawley rat liver fibrosis model assessed as downregulation of NTCP protein expression at 200 mg/kg,po qd administration for 14 days by Western blotting analysis; format: functional, organism-based; settings: time 14.0 day
[6] = molecular target: Collagen alpha-1(I) chain (Homo sapiens) (UniProt P02452); test: Inhibition of COL1A1 (unknown origin) expressed in human LX2 cells at 20 micromol/L incubated for 48 hrs by Bright-Glo luciferase assay relative to control; format: cell-based; settings: dose 20.0 µmol/L
Sequence of Collagen alpha-1(I) chain (Homo sapiens) (P02452 whole entry): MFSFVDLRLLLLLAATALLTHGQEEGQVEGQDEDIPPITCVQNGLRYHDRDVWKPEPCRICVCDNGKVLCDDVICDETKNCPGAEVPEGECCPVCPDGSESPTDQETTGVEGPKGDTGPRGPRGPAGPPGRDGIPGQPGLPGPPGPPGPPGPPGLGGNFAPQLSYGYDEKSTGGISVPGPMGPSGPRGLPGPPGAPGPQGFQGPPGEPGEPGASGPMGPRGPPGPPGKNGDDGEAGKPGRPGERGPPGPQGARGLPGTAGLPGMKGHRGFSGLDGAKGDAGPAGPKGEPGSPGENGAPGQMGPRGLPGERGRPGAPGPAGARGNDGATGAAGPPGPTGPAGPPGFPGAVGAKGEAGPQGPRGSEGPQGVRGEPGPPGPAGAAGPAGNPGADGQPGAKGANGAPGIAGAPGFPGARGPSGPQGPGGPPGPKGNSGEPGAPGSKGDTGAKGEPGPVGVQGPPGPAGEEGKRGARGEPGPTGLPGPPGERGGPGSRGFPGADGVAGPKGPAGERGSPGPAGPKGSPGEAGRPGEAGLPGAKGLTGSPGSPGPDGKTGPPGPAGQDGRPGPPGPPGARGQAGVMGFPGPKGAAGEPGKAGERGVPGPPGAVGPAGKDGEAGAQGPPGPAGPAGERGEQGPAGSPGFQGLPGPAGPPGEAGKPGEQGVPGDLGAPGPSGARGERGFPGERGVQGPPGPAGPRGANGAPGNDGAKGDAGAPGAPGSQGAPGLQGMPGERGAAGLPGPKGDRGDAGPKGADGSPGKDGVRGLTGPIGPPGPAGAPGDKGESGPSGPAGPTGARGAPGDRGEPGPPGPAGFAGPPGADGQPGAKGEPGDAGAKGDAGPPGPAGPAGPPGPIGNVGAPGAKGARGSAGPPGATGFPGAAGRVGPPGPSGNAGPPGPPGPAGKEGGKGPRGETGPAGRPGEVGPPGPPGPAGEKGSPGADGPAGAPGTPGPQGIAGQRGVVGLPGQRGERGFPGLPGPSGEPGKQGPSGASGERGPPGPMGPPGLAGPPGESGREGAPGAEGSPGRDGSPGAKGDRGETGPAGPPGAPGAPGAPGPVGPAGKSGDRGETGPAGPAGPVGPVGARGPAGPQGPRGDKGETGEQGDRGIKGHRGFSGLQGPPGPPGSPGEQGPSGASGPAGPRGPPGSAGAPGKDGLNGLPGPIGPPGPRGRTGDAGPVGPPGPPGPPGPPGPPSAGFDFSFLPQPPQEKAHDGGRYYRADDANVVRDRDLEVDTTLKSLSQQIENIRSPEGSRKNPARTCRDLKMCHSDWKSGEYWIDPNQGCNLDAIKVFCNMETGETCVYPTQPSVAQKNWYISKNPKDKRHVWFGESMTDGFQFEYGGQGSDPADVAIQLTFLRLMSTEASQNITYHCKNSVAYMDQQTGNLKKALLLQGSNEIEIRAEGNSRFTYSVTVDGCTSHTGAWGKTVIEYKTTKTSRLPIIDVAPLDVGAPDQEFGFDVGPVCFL

Which Activity [1] does the source give for COc1cc2c(cc1OC)-c1cc3ccc(OC)c(OCc4cccc(C)c4)c3c[n+]1CC2.[Br-] here?
Its Activity is “Active”.

And the Activity [2]?
The Activity was “Non-Toxic”.

What about the Activity [3] of the same molecule?
The Activity was “Active”.

What about the Activity [4] of the same molecule?
The Activity was “Active”.

And the Activity [5]?
Its Activity is “Active”.

And the inhibition [6]?
Its inhibition is 72.4%.
